The record followed here is patent US7273885B2, “Inhibitors of serine proteases, particularly HCV NS3-NS4A protease” (Vertex Pharmaceuticals Incorporated, priority 2002, dated 2007).

Structures are written as SMILES.

Test [1] relates to Cells containing hepatitis C virus (HCV) replicon. Put plainly: HCV replicon cell assay (Taqman RT-PCR of HCV RNA). In kind it is cell-based. The settings on record: 50% inhibition of HCV RNA level, 48-hour incubation, HCV replicon cells, read-out: IC50. Here is the method:
HCV Replicon Cell Assay Protocol
Cells containing hepatitis C virus (HCV) replicon were maintained in DMEM containing 10% fetal bovine serum (FBS), 0.25 mg per ml of G418, with appropriate supplements (media A).
On day 1, replicon cell monolayer was treated with a trypsin:EDTA mixture, removed, and then media A was diluted into a final concentration of 100,000 cells per ml wit. 10,000 cells in 100 ul were plated into each well of a 96-well tissue culture plate, and cultured overnight in a tissue culture incubator at 37° C.
On day 2, compounds (in 100% DMSO) were serially diluted into DMEM containing 2% FBS, 0.5% DMSO, with appropriate supplements (media B). The final concentration of DMSO was maintained at 0.5% throughout the dilution series.
Media on the replicon cell monolayer was removed, and then media B containing various concentrations of compounds was added. Media B without any compound was added to other wells as no compound controls.
Cells were incubated with compound or 0.5% DMSO in media B for 48 hours in a tissue culture incubator at 37° C. At the end of the 48-hour incubation, the media was removed, and the replicon cell monolayer was washed once with PBS and stored at −80° C. prior to RNA extraction.
Culture plates with treated replicon cell monolayers were thawed, and a fixed amount of another RNA virus, such as Bovine Viral Diarrhea Virus (BVDV) was added to cells in each well. RNA extraction reagents (such as reagents from RNeasy kits) were added to the cells immediately to avoid degradation of RNA. Total RNA was extracted according the instruction of manufacturer with modification to improve extraction efficiency and consistency. Finally, total cellular RNA, including HCV replicon RNA, was eluted and stored at −80° C. until further processing.
A Taqman real-time RT-PCR quantification assay was set up with two sets of specific primers and probe. One was for HCV and the other was for BVDV. Total RNA extractants from treated HCV replicon cells was added to the PCR reactions for quantification of both HCV and BVDV RNA in the same PCR well. Experimental failure was flagged and rejected based on the level of BVDV RNA in each well. The level of HCV RNA in each well was calculated according to a standard curve run in the same PCR plate. The percentage of inhibition or decrease of HCV RNA level due to compound treatment was calculated using the DMSO or no compound control as 0% of inhibition. The IC50 (concentration at which 50% inhibition of HCV RNA level is observed) was calculated from the titration curve of any given compound.
Background: Replicon systems follow genome replication, usually without infectious particles.

In test [2] the target is HCV NS3-NS4A protease (tNS3 with KK4A) (Hepatitis C virus genotype 1a, UniProt P27958). Briefly: HCV Ki assay (HPLC microbore separation of 5AB substrate and products). The test is classed as biochemical. As for the experimental part:
HPLC Microbore Method for Separation of 5AB Substrate and Products
• Substrate: • NH2-Glu-Asp-Val-Val-(alpha)Abu-Cys-Ser-Met-Ser-Tyr-COOH
A stock solution of 20 mM 5AB (or concentration of your choice) was made in DMSO w/ 0.2M DTT. This was stored in aliquots at −20 C.
Buffer: 50 mM HEPES, pH 7.8; 20% glycerol; 100 mM NaCl
Total assay volume was 100 μL
The buffer, KK4A, DTT, and tNS3 were combined; distributed 78 μL each into wells of 96 well plate. This was incubated at 30 C for ˜5–10 min.
2.5 μL of appropriate concentration of test compound was dissolved in DMSO (DMSO only for control) and added to each well. This was incubated at room temperature for 15 min.
Initiated reaction by addition of 20 μL of 250 μM 5AB substrate (25 μM concentration is equivalent or slightly lower than the Km for 5AB).
Incubated for 20 min at 30 C.
Terminated reaction by addition of 25 μL of 10% TFA
Transferred 120 μL aliquots to HPLC vials
Separated SMSY product from substrate and KK4A by the following method:
Microbore Separation Method:
Instrumentation: Agilent 1100
• Degasser G1322A • Binary pump G1312A • Autosampler G1313A • Column thermostated chamber G1316A • Diode array detector G1315A Column:
Phenomenex Jupiter; 5 micron C18; 300 angstroms; 150×2 mm; P/O 00F-4053-B0 • Column thermostat: 40 C • Injection volume: 100 μL • Solvent A=HPLC grade water+0.1% TFA • Solvent B=HPLC grade acetonitrile+0.1% TFA
• Stop time: 17 min • Post-run time: 10 min.

Sequence of HCV NS3-NS4A protease (tNS3 with KK4A) (P27958 1027-1208): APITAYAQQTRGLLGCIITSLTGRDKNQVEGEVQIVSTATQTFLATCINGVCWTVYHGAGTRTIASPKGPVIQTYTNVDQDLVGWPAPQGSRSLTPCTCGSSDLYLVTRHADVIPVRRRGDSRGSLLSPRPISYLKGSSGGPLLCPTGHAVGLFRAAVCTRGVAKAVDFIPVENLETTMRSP

One may read the IC50 as the concentration at which inhibition is half-maximal. As usually defined, the Ki is the dissociation constant of the complex between target and ligand, obtained from inhibition or displacement. Turning to `CCC[C@H](NC(=O)[C@@H]1C[C@@H]2CCCC[C@@H]2N1C(=O)[C@@H](NC(=O)[C@@H](NC(=O)c1cc(Cl)c(Cl)[nH]1)C1CCCCC1)C(C)(C)C)C(=O)C(=O)NC1CC1` [Compound 43a], the half-maximal inhibitory concentration (IC50) in test [1] is below 500 nM. The compound further displayed a Ki in test [2] below 500 nM.

Turning to `CCC[C@H](NC(=O)[C@@H]1C[C@@H]2CCCC[C@@H]2N1C(=O)[C@@H](NC(=O)[C@@H](NC(=O)c1cc(C(=O)CC)c[nH]1)C1CCCCC1)C(C)(C)C)C(=O)C(=O)NC1CC1` [Compound 44a], in test [1], the IC50 is below 500 nM. In test [2], this compound returned a Ki below 500 nM.

On to `CC(=O)c1c(C(=O)N[C@H](C(=O)N[C@H](C(=O)N2[C@H](C(=O)NC(CCC(F)(F)F)C(=O)C(=O)NC3CC3)C[C@@H]3CCCC[C@@H]32)C(C)(C)C)C2CCCCC2)[nH]c(C)c1C` (stereo partly drawn) [Compound 45a], for which, in test [1], the IC50 is below 500 nM. This compound also came in with a Ki in test [2] below 500 nM.

In the case of `CCC[C@H](NC(=O)[C@@H]1C[C@@H]2CCCC[C@@H]2N1C(=O)[C@@H](NC(=O)[C@@H](NC(=O)[C@@H]1Cc2ccccc2N1)C1CCCCC1)C(C)(C)C)C(=O)C(=O)NC1CC1` [Compound 46a], the IC50 in test [1] was 1000 to 5000 nM. The same compound yielded a Ki in test [2] below 500 nM.

As for `CCC[C@H](NC(=O)[C@@H]1C[C@@H]2CCCC[C@@H]2N1C(=O)[C@@H](NC(=O)[C@@H](NC(=O)c1cnccn1)C1CCCCC1)C(C)(C)C)C(=O)C(=O)N[C@@H]1CCOC1` [Compound 47a], the IC50 in test [1] was 1000 to 5000 nM. Moreover, the Ki in test [2] is 500 to 1000 nM.

Regarding `C=CCNC(=O)C(=O)[C@H](CCC)NC(=O)[C@@H]1C[C@@H]2CCCC[C@@H]2N1C(=O)[C@@H](NC(=O)[C@@H](NC(=O)c1cnccn1)C1CCCCC1)C(C)(C)C` [Compound 51a], the IC50 in test [1] was in the range of 500 to 1000 nM. In test [2], this compound had a Ki below 500 nM.

With `CCC[C@H](NC(=O)[C@@H]1C[C@@H]2CCCC[C@@H]2N1C(=O)[C@@H](NC(=O)[C@@H](NC(=O)c1[nH]c(C)c(C(C)=O)c1C#N)C1CCCCC1)C(C)(C)C)C(=O)C(=O)NC1CC1` [Compound 52a], the IC50 in test [1] was below 500 nM. The same compound yielded a Ki in test [2] below 500 nM.

With `CCC[C@H](NC(=O)[C@@H]1C[C@@H]2CCCC[C@@H]2N1C(=O)[C@@H](NC(=O)[C@@H](NC(=O)c1[nH]c(C)c(C(C)=O)c1-c1ccccc1)C1CCCCC1)C(C)(C)C)C(=O)C(=O)NC1CC1` [Compound 53a], the IC50 in test [1] is below 500 nM. Besides, in test [2], the Ki is below 500 nM.

With `CCC[C@@H](NC(=O)[C@@H]1C[C@@H]2CCCC[C@@H]2N1C(=O)[C@@H](NC(=O)[C@@H](NC(=O)c1cnccn1)C1CCCCC1)C(C)(C)C)C(=O)C(=O)NC1CC1` [Compound 60a], in test [1], the IC50 is 1000 to 5000 nM. Further, the Ki in test [2] was 1000 to 5000 nM.

With `CC(=O)c1c(C(=O)N[C@H](C(=O)N[C@H](C(=O)N2[C@H](C(=O)N[C@@H](CC(F)F)C(=O)C(=O)NC3CC3)C[C@@H]3CCCC[C@@H]32)C(C)(C)C)C2CCCCC2)[nH]c(C)c1C` [Compound 61a], the IC50 in test [1] is below 500 nM. Further, the Ki in test [2] is below 500 nM.

As to `CCC[C@H](NC(=O)[C@@H]1[C@@H](C2CCCCC2)CCN1C(=O)[C@@H](NC(=O)[C@@H](NC(=O)c1[nH]c(C)c(C)c1C(C)=O)C1CCCCC1)C(C)(C)C)C(=O)C(=O)NC1CC1` [Compound 63], the IC50 in test [1] fell in the range of 500 to 1000 nM. Besides, the inhibitory constant (Ki) in test [2] is below 500 nM.

Take `CCC[C@H](NC(=O)[C@@H]1[C@@H](C(C)C)CCN1C(=O)[C@@H](NC(=O)[C@@H](NC(=O)c1[nH]c(C)c(C)c1C(C)=O)C1CCCCC1)C(C)(C)C)C(=O)C(=O)NC1CC1` [Compound 64]: the IC50 in test [1] is below 500 nM. The compound further returned a Ki in test [2] below 500 nM.

Consider `CCC[C@H](NC(=O)[C@@H]1[C@H]2CC[C@H](C2)N1C(=O)[C@@H](NC(=O)[C@@H](NC(=O)c1[nH]c(C)c(C)c1C(C)=O)C1CCCCC1)C(C)(C)C)C(=O)C(=O)NC1CC1` [Compound 65], for which the IC50 in test [1] was below 500 nM. In test [2], this compound registered a Ki below 500 nM.

Take `CCC[C@H](NC(=O)[C@@H]1C[C@@H](Oc2ncc(Cl)cn2)CN1C(=O)[C@@H](NC(=O)[C@@H](NC(=O)c1[nH]c(C)c(C)c1C(C)=O)C1CCCCC1)C(C)(C)C)C(=O)C(=O)NC1CC1` [Compound 67]: the IC50 in test [1] was below 500 nM. In test [2], this compound returned a Ki below 500 nM.

`CCC[C@H](NC(=O)[C@@H]1[C@H]2CCC[C@H]2CN1C(=O)[C@@H](NC(=O)[C@@H](NC(=O)c1[nH]c(C)c(C)c1C(C)=O)C1CCCCC1)C(C)(C)C)C(=O)C(=O)NC1CC1` [Compound 68]: the 50% inhibitory concentration (IC50) in test [1] was below 500 nM. The compound also showed a Ki in test [2] below 500 nM.
